Laboratory results: patent publication US20060173009A1, “Agent inducing increase in bone mass” (priority 2003, published 2006)

Experiments:
[1] = test system: osteoporosis model (rat OVX); assay: Osteoporosis model (rat OVX), Test 1: 12 weeks administration, compound A and incadronate; type: in vivo; settings: for femoral bone strength (three-point bending test) / femoral cortical bone mineral density (pQCT) / femoral cortical bone thickness (pQCT): OVX rats, compound A 30 mg/kg twice a day oral, incadronate 1 mg/kg once a day oral; for femoral bone strength (three-point bending test): in comparison with Control Group 1 (FIG. 1); for femoral cortical bone mineral density (pQCT): in comparison with Control Group 1 (FIG. 2); for femoral cortical bone thickness (pQCT): in comparison with Control Group 1 (FIG. 3)
Description: (§1) Female SD rats of 16 weeks of age (Charles River Japan) were used in the test. Under anesthesia, both sides of ovaries were exposed, and ovaries of all groups excluding the sham operation group were ligated and extracted. In the sham operation group, only an operation of exposing ovaries to the outside of abdomen was carried out.
(§2) Preparation of the aforementioned model was carried out by referring to the method of Kalu et al., (Bone Miner., vol. 15, p. 175 (1991)) and the method of Frost et al., (Bone Miner., vol. 18, p. 227 (1992)).
Before carrying out the ovariectomy (OVX), bone mineral density at 5 mm from the tibial proximal end was measured by pQCT. By leaving for 8 weeks after the OVX, significant reduction of the bone mineral density was confirmed. […] The bone density was measured every 4 weeks after the administration, and urine samples were collected during 24 hours from the previous day of the completion of observation period. After completion of the urine collection, they were sacrificed by exsanguinations under ether anesthesia, and samples were collected.
Bone strength of the femoral diaphysis was measured by three-point bending test (TK-252c, mfd. by Muromachi Kikai). A femur was gently put on a supporting table of 20 mm in distance between supporting points, a bending load was applied on the midpoint of femur at a rate of 10 mm/min, and a load-deformation curve was recorded until its breakage. Maximum value of the load-deformation curve was used as the ultimate force, and the slope of the linear portion of the load-defomation curve was used as the stiffness.
Using a peripheral quantitative computed tomography (PQCT, XCT960A, mfd. by Norland-Stratec), cross-section of the bone was scaned, and bone mineral density and the like various parameters were calculated by analyzing the image.
As a bone metabolism marker, measurement of lysylpyridinoline (deoxypyridinoline hereinafter) value was carried out by SRL MediSearch using an HPLC method (Uebelhart, D et al., Bone Miner., vol. 8, p. 87 (1990)). In order to exclude influence of urine volume, the thus obtained deoxypyridinoline value was corrected by dividing the value by urine creatinine concentration or multiplying the 24 hour urine volume.
The compound of Production Example 93 (6-(4-fluoropiperidin-1-yl)-3-(6-methoxypyridin-2-yl)-1,2,4-triazolo[4,3-b]pyridazine: to be referred to as compound A hereinafter) which is a typical compound of the compound (I) was used as the non-living body-derived non-peptide osteoblast differentiation promoting compound of the invention, and incadronate (Bisphonal (registered trademark)) as the bisphosphonate, respectively. Groups in which the compound A or incadronate alone and a parathyroid hormone hPTH(1-34) are to be administered were used as comparative groups. In addition, the drug-non-administered OVX group and the sham operation group were used as control groups. The compound A was orally administered twice a day as a 0.5% methyl cellulose suspension of 30 mg/5 ml/kg, and incadronate was orally administered once a day as an aqueous solution of 1 mg/2.5 ml/kg. The hPTH(1-34) was subcutaneously administered once a day as a physiological saline solution of 3 μg/1 ml/kg. To the control groups was orally administered 0.5% methyl cellulose twice a day.

[2] = test system: osteoporosis model (rat OVX); assay: Osteoporosis model (rat OVX), Test 2: 4 weeks administration, compound A and alendronate; type: in vivo; settings: Test 2, OVX rats, 24 hour urine 5 weeks after the administration, EIA method (FIG. 7)
Description: as §1, §2
Before carrying out the ovariectomy (OVX), bone mineral density of tibial metaphysis at 5 mm from the tibial proximal end was measured by pQCT. By leaving for 8 weeks after the OVX, significant reduction of the bone mineral density of tibial metaphysis was confirmed by re-measurement. […] After 4 weeks of the administration, the cortical bone thickness and bone mineral density of the tibial diaphysis were measured in the same manner as described in the above. In addition, urine samples were collected during 24 hours 5 weeks after the administration, and the urinary deoxypyridinoline was measured by an EIA method (Osteolinks “DPD”, mfd. by Sumitomo Pharmaceutical Biomedical). […]

SMILES | femoral bone strength (three-point bending test) [1] | femoral cortical bone mineral density (pQCT) [1] | femoral cortical bone thickness (pQCT) [1] | urinary deoxypyridinoline value (urine volume correction), bone resorption index ([1]; Test 1, OVX rats, 24 hour urine, HPLC method (FIG. 4)) | urinary deoxypyridinoline value (urine volume correction), bone resorption index [2]
O=P(O)(O)C(NC1CCCCCC1)P(=O)(O)O [incadronate, reference compound] | increasing tendency | increasing tendency | increasing tendency | – | –
COc1cccc(-c2nnc3ccc(N4CCC(F)CC4)nn23)n1 [compound A, 6-(4-fluoropiperidin-1-yl)-3-(6-methoxypyridin-2-yl)-1,2,4-triazolo[4,3-b]pyridazine] | increasing tendency | increasing tendency | increasing tendency | increased | increased
